Test results published in publication PMC5580238 (ACS chemical neuroscience, 2016).
“Also recorded” adds a separate entry of the source. Read-outs that look alike come from different tables or passages of the source.

Columns and labels:
[1] = molecular target: PIB site in AD brain tissue homogenates (thioflavin-T binding site on β-amyloid plaques) (Homo sapiens, UniProt P05067)
[2] = molecular target: T807 site in AD brain tissue homogenates (NFTs) (Homo sapiens, UniProt P10636); type: binding; conditions: for Inhibition of specific binding of [3H]T807 to AD brain tissue homogenate: compound at 1 μM concentration
[3] = molecular target: THK-523 site in AD brain tissue homogenates (NFTs) (Homo sapiens, UniProt P10636); type: binding; conditions: for Inhibition of specific binding of [3H]THK-523 to AD brain tissue homogenate: compound at 1 μM concentration; for Ki: Ki with [3H]THK-523 as reference radioligand
[4] = Ligand solubility in binding assay media; type: physicochemical; conditions: in water or PBS
AD brain homogenate = AD brain homogenate (Homo sapiens, UniProt P10636); experiment: Titration; type: binding; conditions: titration with [18F]THK-523 plus THK-523; curve fit
Chain of AD brain homogenate (P10636 2-758): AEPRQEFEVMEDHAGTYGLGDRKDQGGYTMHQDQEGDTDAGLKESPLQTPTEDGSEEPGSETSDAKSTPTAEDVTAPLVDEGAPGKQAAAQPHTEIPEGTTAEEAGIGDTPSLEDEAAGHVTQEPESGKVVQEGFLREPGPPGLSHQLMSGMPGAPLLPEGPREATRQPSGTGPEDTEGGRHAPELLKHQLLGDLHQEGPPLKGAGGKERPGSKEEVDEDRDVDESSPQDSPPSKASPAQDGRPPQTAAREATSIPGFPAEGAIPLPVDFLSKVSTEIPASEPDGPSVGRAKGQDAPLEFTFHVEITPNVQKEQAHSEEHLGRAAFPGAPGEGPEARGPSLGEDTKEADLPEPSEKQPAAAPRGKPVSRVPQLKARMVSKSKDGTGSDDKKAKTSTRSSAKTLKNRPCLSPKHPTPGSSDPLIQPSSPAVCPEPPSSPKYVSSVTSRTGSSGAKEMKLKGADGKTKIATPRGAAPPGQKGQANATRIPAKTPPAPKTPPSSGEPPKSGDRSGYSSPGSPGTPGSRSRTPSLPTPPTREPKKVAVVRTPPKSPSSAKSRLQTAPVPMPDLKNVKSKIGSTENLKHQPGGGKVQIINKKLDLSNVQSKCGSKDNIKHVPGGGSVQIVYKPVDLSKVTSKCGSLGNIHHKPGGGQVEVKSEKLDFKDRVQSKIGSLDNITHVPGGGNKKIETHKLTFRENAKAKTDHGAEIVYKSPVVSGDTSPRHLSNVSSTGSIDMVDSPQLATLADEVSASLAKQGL

Chain of T807 site in AD brain tissue homogenates (NFTs) (P10636 623-708 limits assumed): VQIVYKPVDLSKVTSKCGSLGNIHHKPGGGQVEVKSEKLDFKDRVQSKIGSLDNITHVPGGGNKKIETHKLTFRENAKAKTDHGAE
Chain of THK-523 site in AD brain tissue homogenates (NFTs) (P10636 623-708 limits assumed): as above
Chain of PIB site in AD brain tissue homogenates (thioflavin-T binding site on β-amyloid plaques) (P05067 672-711 limits assumed): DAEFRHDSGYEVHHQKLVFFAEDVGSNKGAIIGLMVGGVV

Row | Structure (SMILES) | Ki [1] [nM] | Ki [2] [nM] | other results
1 | Nc1ccc(-c2ccc3cc(OCCOCCF)ccc3n2)cc1 [10b, 4-(6-(2-(2-Fluoroethoxy)ethoxy)quinolin-2-yl)aniline] | > 1000 | > 1000 | –
2 | Nc1ccc(-c2ccc3cc(OCCOCCOCCF)ccc3n2)cc1 [10c, 4-(6-(2-(2-(2-Fluoroethoxy)ethoxy)ethoxy)quinolin-2-yl)aniline] | > 1000 | > 1000 | –
3 | Nc1ccc(-c2ccc3cc(OCCOCCOCCOCCF)ccc3n2)cc1 [10d, 4-(6-(2-(2-(2-(2-Fluoroethoxy)ethoxy)ethoxy)ethoxy)quinolin-2-yl)aniline] | > 1000 | > 1000 | –
4 | Nc1ccc(-c2ccc3cc(OCCOCCOCCOCCOCCF)ccc3n2)cc1 [10e, 4-(6-((14-Fluoro-3,6,9,12-tetraoxatetradecyl)oxy)quinolin-2-yl)-aniline] | 43 ± 39 | – | –
5 | Nc1ccc(-c2ccc3cc(OCCOCCOCCOCCOCCOCCF)ccc3n2)cc1 [10f, 4-(6-((17-Fluoro-3,6,9,12,15-pentaoxaheptadecyl)oxy)quinolin-2-yl)aniline] | > 500 | – | –
6 | Nc1ccc(-c2ccc3cc(OCCOCCN4CCOC4=O)ccc3n2)cc1 [12c, 3-(2-(2-((2-(4-Aminophenyl)quinolin-6-yl)oxy)ethoxy)ethyl)-oxazolidin-2-one] | > 1000 | > 1000 | –
7 | Nc1ccc(-c2ccc3cc(OCCOCCNCCO)ccc3n2)cc1 [12f, 2-((2-(2-((2-(4-Aminophenyl)quinolin-6-yl)oxy)ethoxy)ethyl)-amino)ethan-1-ol] | > 1000 | > 1000 | –
8 | Fc1ccc(-c2ccc3c(c2)[nH]c2ccncc23)cn1 [T807] | – | – | Inhibition of specific binding of [3H]T807 to AD brain tissue homogenate [2]: full inhibition; Inhibition of specific binding of [3H]THK-523 to AD brain tissue homogenate ([3]; 1 µM): failed to inhibit; also recorded: very low inhibition
9 | Nc1ccc(-c2ccc3cc(OCCF)ccc3n2)cc1 [THK-523, 4-(6-(2-Fluoroethoxy)quinolin-2-yl)aniline] | > 1000 | 425 ± 383 | Solubility [4]: insoluble; Inhibition of specific binding of [3H]T807 to AD brain tissue homogenate ([2]; 1 µM): failed to inhibit; Inhibition of specific binding of [3H]T807 to AD brain tissue homogenate ([2]; listed as THK-523 (10a), 1 µM): very low inhibition; Ki ([3]; 20% ethanol wash): 28 ± 6 nM; Ki ([3]; Tris-buffer (pH 7.2) wash): 52 ± 14 nM; Ki ([3]; neat ethanol wash): 45 ± 12 nM; Inhibition of specific binding of [3H]THK-523 to AD brain tissue homogenate [3]: full inhibition
10 | Nc1ccc(-c2ccc3cc(OCCF)ccc3n2)cc1 [[^18F]THK-523] | – | – | Bmax (concentration of maximal binding sites) (AD brain homogenate): 1639 ± 235 dpm; NS (coefficient of nonspecific binding) (AD brain homogenate): 169 ± 3
